According to US7799346B2, “Method of treatment directed to agent retention in biological tissues” (Advanced Cardiovascular Systems, Inc., priority 1999, dated 2010):

Key:
[1] = In-vitro agent retention in perfused excised vessel, fluorescent intensity of tissue sections; format: in vitro ADME, porcine
Text: The target tissue is a live excised porcine carotid. The tissue sample is perfused with buffered saline of Kerbs-henseleit Buffer (Sigma Catalog #K3753) at physiological temperature and pressure. Thereafter, the excised vessels are received in buffered saline solution. The artery segments are sutured to tubing using plastic nipple adapters and loaded into a perfusion chamber. The segments are stretched to their original lengths. In the perfusion chamber, the vessels are allowed to equilibrate for 10 minutes at 37° C. the hydrostatic pressure head above the chamber is about 100 cm.
A microporous balloon catheter is inserted through the rotating hemostatic valve (RHV) and secured. The agent used is […]. The agent is delivered through the catheter at 3.5 atm pressure for 2 minutes in both control and test samples. The amount of agent delivered is about 3 ml. Immediately following agent introduction, a barrier of Poly(amine) Barrier is delivered through the catheter in only the test samples for about 2 minutes. The total amount of barrier introduced is about 3 ml.
The test and control vessels are flushed with the buffer solution for about 15 minutes. The proximal and distal positions of the vessels are marked and the vessels are removed from the perfusion chamber and placed into a bath containing liquid nitrogen. The vessels are mounted in paraffin and sliced in 10 micron thin sections at the proximal, mid and distal portions.
The slides are observed using a fluorescent microscope. The fluorescent intensities of the sections are recorded, where fluorescence represents the presence of agent in the tissue. The resulting intensities over the length of the tissue sections are represented in the graphs in FIG. 5A showing the proximal section and FIG. 5B showing the mid section. […] The average intensity of agent in the test sample is about 1083, whereas the control intensity is about 749. Thus, a 44% increase in agent occurs with the use of the barrier. […]

[2] = cited from earlier work; for pKa NH3: aminium group NH3+; for pKa CO2H: carboxyl group

fluorescent intensity of agent in tissue section, Distal [1] | fluorescent intensity of agent in tissue section, Mid [1] | fluorescent intensity of agent in tissue section, Proximal [1] | Molecule | pKa NH3 [2] | pKa CO2H [2]
747 | 831 | 669 | cascade blue | – | –
– | – | – | CSCC[C@H](N)C(=O)O [Methionine] | 9.9 | –
– | – | – | O=C(O)[C@@H]1C[C@@H](O)CN1 [Hydroxyproline] | 9.7 | 1.9
– | – | – | N[C@@H](CSSC[C@H](N)C(=O)O)C(=O)O [Cystine] | 7.9 | 1.6
